Source: patent publication US11548899B2, “Fused 1,4-oxazepines and related analogs as BET bromodomain inhibitors” (THE REGENTS OF THE UNIVERSITY OF MICHIGAN, priority 2016, dated 2023)
Where “and” joins values, the source holds several entries; their conditions need not be identical. Equal entries are not always repeated. Where two headings read alike, the source gives them in different places.

What was measured:
MOLM-13 = assay: Cell growth inhibition, 4-day proliferation assay, MOLM-13; format: cell-based; settings: read-out: Cell Viability (IC50, μM) MOLM-13
Procedure: (§1) The effect of representative Compounds of the Disclosure on cell viability was determined in a 4-day proliferation assay. Cells were maintained in the appropriate culture medium with 10% FBS at 37° C. and an atmosphere of 5% CO2. All the cell lines were used within three months of thawing fresh vials.
(§2) Cells were seeded in 96-well flat bottom (Corning COSTAR, Corning, N.Y., cat #3595) or white opaque cell culture plates (BD Falcon, cat #353296) at a density of 3,000-10,000 cells/well in 75 μl of culture medium. Compounds were serially diluted in the appropriate medium, and 75 μl of the diluted compounds were added to the appropriate wells of the cell plate. After the addition of compounds, the cells were incubated at 37° C. in an atmosphere of 5% CO2 for 4 days. Cell viability was determined using the CellTiter-Glo® Luminescent Cell Viability Assay Kit (Promega, Madison, Wis.) for leukemia cells and WST (2-(2-methoxy-4-nitrophenyl)-3-(4-nitrophenyl)-5-(2,4-disulfophenyl)-2H-tetrazolium, monosodium salt) Cell Counting-8 Kit (Dojindo Molecular Technologies, Inc., Rockville, Md.) for adhenrent cells according to the manufacturers' instructions. […]
(§3) For CellTiter-Glo assay (suspension cells), 100 μl of CellTiter-Glo® Reagent was added to each well, and then the plates were incubated at room temperature for 10-20 minutes. The luminescent signal was measured using a Tecan Infinite M1000 multimode microplate reader (Tecan, Morrisville, N.C.). The readings were normalized to the DMSO-treated cells and the IC50 was calculated by nonlinear regression (four parameters sigmoid fitted with variable slope, least squares fit, and no constraint) analysis using the GraphPad Prism 5 software. See US 2014/0256706.

recombinant BRD4 BD2 = target: T1, recombinant BRD4 BD2 (Homo sapiens, UniProt O60885); assay: Competitive fluorescence-polarization (FP) binding assay, BRD4 BD2; settings: protein 6 nM, probe 1.5 nM
T1 construct: recombinant BRD4 BD1 and BRD4 BD2 proteins

recombinant BRD4 BD1 = target: T2, recombinant BRD4 BD1 (Homo sapiens, UniProt O60885); assay: Competitive fluorescence-polarization (FP) binding assay, BRD4 BD1; settings: FP competitive binding; protein 10 nM, probe 1.5 nM; read-out: IC50 (nM) BRD4 BD1
T2 construct: recombinant BRD4 BD1 and BRD4 BD2 proteins
Procedure: Fluorescence Polarization (FP) competitive binding studies were carried out using a FAM labeled fluorescent probe, see Cpd. […] Equilibrium dissociation constants (Kd) values of the fluorescent probe to BRD4 BD1 and BD2 proteins were determined from protein saturation experiments by monitoring the total fluorescence polarization of mixtures composed with the fluorescent probe at a fixed concentration and proteins with increasing concentrations up to full saturation. […] Plates were incubated at room temperature for 30 minutes with gentle shaking to assure equilibrium.
The IC50 and Ki values of compounds were determined in a competitive binding experiment. […] Mixtures of 10 μl of the tested compounds in assay buffer with 40% Ethylene Glycol and 190 μl of preincubated protein/probe complex solution in the assay buffer (100 mM potassium phosphate, pH 6.5, 0.01% Triton X-100) were added into assay plates which were incubated at room temperature for 30 minutes with gentle shaking. Final concentrations of proteins were 10 and 6 nM in assays for BRD4 BD1 and BD2, respectively. […] FP values were measured as described above. IC50 values were determined by nonlinear regression fitting of the competition curves.

RS4-11 = assay: Cell growth inhibition, 4-day proliferation assay, RS4-11; format: cell-based; settings: read-out: Cell Viability (IC50, μM) RS4-11
Procedure: as §1, §2, §3

[1] = Homo sapiens, MOLM-13, 96 h, 4 days incubation, MOLM-13 cells
[2] = Homo sapiens, RS4-11, 96 h, 4 days incubation, RS4-11 cells
[3] = 4 days incubation, MOLM-13 cells
[4] = 4 days incubation, RS4-11 cells

| Structure (SMILES) | IC50 (recombinant BRD4 BD2) | IC50 (recombinant BRD4 BD1) | IC50 (MOLM-13; [1]) | IC50 (RS4-11; [2]) | IC50 (MOLM-13; [3]) | IC50 (RS4-11; [4]) | IC50 (MOLM-13; Homo sapiens, MOLM-13, 96 h) | IC50 (RS4-11; Homo sapiens, RS4-11, 96 h) |
| --- | --- | --- | --- | --- | --- | --- | --- | --- |
| Cc1sc2c(c1Nc1ccccc1)COCc1nnc(C)n1-2 [Cpd. No. 6, 2,9-dimethyl-N-phenyl-4H,6H-thieno[2,3-e][1,2,4]triazolo[3,4-c][1,4]oxazepin-3-amine] | 346 nM and 457 nM | 317 nM and 629 nM | – | – | – | – | > 5 µM | 4.5 µM |
| Cc1sc2c(c1Nc1cc(C3CC3)nn1C)COCc1nnc(C)n1-2 [Cpd. No. 7, N-(3-cyclopropyl-1-methyl-H-pyrazol-5-yl)-2,9-dimethyl-4H,6H-thieno[2,3-e][1,2,4]triazolo[3,4-c][1,4]oxazepin-3-amine] | 1160 nM and 1260 nM | 171 nM and 311 nM | 2.8 µM | 4.2 µM | – | – | – | – |
| Cc1sc2c(c1Cc1ccccc1)CN(C(=O)OCc1ccccc1)[C@@H](C)c1nnc(C)n1-2 [Cpd. No. 12, benzyl (S)-3-benzyl-2,6,9-trimethyl-4H-thieno[3,2-f][1,2,4]triazolo[4,3-a][1,4]diazepine-5(6H)-carboxylate] | 328 nM and 379 nM | 371 nM | 4 µM | 4.7 µM | – | – | – | – |
| Cc1sc2c(c1Cc1ccccc1)CN(C(=O)OCc1ccccc1)Cc1nnc(C)n1-2 [Cpd. No. 14, benzyl 3-benzyl-2,9-dimethyl-4H-thieno[3,2-f][1,2,4]triazolo[4,3-a][1,4]diazepine-5(6H)-carboxylate] | 118 nM and 145 nM | 85 nM and 112 nM | 1.9 µM | 2.4 µM | – | – | – | – |
| Cc1sc2c(c1Cc1ccccc1)CNCc1nnc(C)n1-2 [Cpd. No. 15, 3-benzyl-2,9-dimethyl-5,6-dihydro-4H-thieno[3,2-f][1,2,4]triazolo[4,3-a][1,4]diazepine] | 102 nM and 111 nM | 531 nM and 751 nM | 2 µM | 2.7 µM | – | – | – | – |
| Cc1nnc2n1-c1sc(C#Cc3cnn(C)c3)c(Cc3ccccc3)c1CO[C@H]2C [Cpd. No. 85, (S)-3-benzyl-6,9-dimethyl-2-((1-methyl-1H-pyrazol-4-yl)ethynyl)-4,6-dihydrothieno[2,3-e][1,2,4]triazolo[3,4-c][1,4]oxazepine] | 48.3 nM and 60.3 nM | 7.3 nM and 8.1 nM | 0.16 µM | 0.14 µM | 0.1 µM | 0.12 µM | – | – |
| Cc1nnc2n1-c1sc(C#Cc3ccc(N)nc3)c(Cc3ccccc3)c1COC2 [Cpd. No. 89, 5-((3-benzyl-9-methyl-4,6-dihydrothieno[2,3-e][1,2,4]triazolo[3,4-c][1,4]oxazepin-2-yl)ethynyl)pyridin-2-amine] | 315 nM | 8.7 nM | 0.28 µM | 0.62 µM | – | – | – | – |

Now from value to compound, other results behind:

| IC50 (recombinant BRD4 BD2) | IC50 (recombinant BRD4 BD1) | IC50 (MOLM-13; [1]) | IC50 (RS4-11; [2]) | IC50 (MOLM-13; [3]) | IC50 (RS4-11; [4]) | Structure (SMILES) | IC50 (MOLM-13; Homo sapiens, MOLM-13, 96 h) | IC50 (RS4-11; Homo sapiens, RS4-11, 96 h) |
| --- | --- | --- | --- | --- | --- | --- | --- | --- |
| 213 nM | 115 nM and 70.4 nM | 1.1 µM | 1 µM | 0.67 µM | 0.95 µM | Cc1sc2c(c1Cc1ccc(F)cc1)COCc1nnc(C)n1-2 [Cpd. No. 103, 3-(4-fluorobenzyl)-2,9-dimethyl-4H,6H-thieno[2,3-e][1,2,4]triazolo[3,4-c][1,4]oxazepine] | – | – |
| – | 283 nM | 2.6 µM | 1.5 µM | – | – | Cc1sc2c(c1Cn1ccc3ccccc31)COCc1nnc(C)n1-2 [Cpd. No. 106, 3-((1H-indol-1-yl)methyl)-2,9-dimethyl-4H,6H-thieno[2,3-e][1,2,4]triazolo[3,4-c][1,4]oxazepine] | – | – |
| 125 nM and 120 nM | 99.6 nM and 93.8 nM | 1.1 µM | 1 µM | 0.81 µM | – | Cc1sc2c(c1Cc1ccccc1)COC(C)c1nnc(C)n1-2 (stereo not drawn) [Cpd. No. 109, 3-benzyl-2,6,9-trimethyl-4H,6H-thieno[2,3-e][1,2,4]triazolo[3,4-c][1,4]oxazepine] | – | – |
| 2320 nM | 634 nM | 3.8 µM | 3.5 µM | – | – | Cc1nnc2n1-c1sc(C#N)c(Cc3ccccc3)c1COC2 [Cpd. No. 110, 3-benzyl-9-methyl-4H,6H-thieno[2,3-e][1,2,4]triazolo[3,4-c][1,4]oxazepine-2-carbonitrile] | – | – |
